Among the data in publication PMC9027176 (Viruses, 2022) are IC50 values, retold here.

Where no end group is shown, it is not given here.

The first assay deals with KsBcl-2 (Human herpesvirus 8 type P, UniProt F5HGJ3, V117A). Nature of the assay: biochemical.
Chain of KsBcl-2 (F5HGJ3 1-146 V117A): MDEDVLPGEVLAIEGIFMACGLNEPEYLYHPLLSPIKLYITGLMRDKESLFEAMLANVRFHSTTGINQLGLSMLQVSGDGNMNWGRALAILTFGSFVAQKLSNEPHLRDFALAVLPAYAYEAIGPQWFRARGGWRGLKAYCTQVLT
Details: not given
In kind it is binding, Kaposi's sarcoma-associated herpesvirus.
Turning to PAELEVECATQLRRFGDKLNFRQKLL [Noxa], half-maximal inhibition (IC50) required 220 nM.

Still in this assay, the particulars now being: SEM.
On to `CC[C@H](C)[C@H](NC(=O)[C@H](CC(N)=O)NC(=O)[C@H](CCCNC(=N)N)NC(=O)[C@@H](NC(=O)[C@@H](NC(=O)[C@H](CC(=O)O)NC(=O)[C@H](CCC(=O)O)NC(=O)[C@H](CCC(N)=O)NC(=O)[C@H](CO)NC(=O)[C@H](CCC(=O)O)NC(=O)[C@@H](N)CO)[C@@H](C)CC)[C@@H](C)CC)C(=O)N[C@@H](C)C(=O)N[C@@H](CCCNC(=N)N)C(=O)N[C@@H](Cc1c[nH]cn1)C(=O)N[C@@H](CC(C)C)C(=O)N[C@@H](C)C(=O)N[C@@H](CCC(N)=O)C(=O)N[C@H](C(=O)NCC(=O)N[C@@H](CC(=O)O)C(=O)N[C@@H](CO)C(=O)N[C@@H](CCSC)C(=O)N[C@@H](CC(=O)O)C(=O)N[C@@H](CCCNC(=N)N)C(=O)N[C@@H](CO)C(=O)N[C@H](C(=O)N1CCC[C@H]1C(=O)N1CCC[C@H]1C(=O)NCC(=O)N[C@@H](CC(C)C)C(=O)N[C@H](C(=O)N[C@@H](CC(N)=O)C(=O)NCC(=O)N[C@@H](CC(C)C)C(=O)O)C(C)C)[C@@H](C)CC)C(C)C` [Bid], for which the IC50 – broadly, the midpoint of a concentration-inhibition curve – is 20 ± 9 nM.

`CC[C@H](C)[C@H](NC(=O)[C@H](CS)NC(=O)[C@H](C)NC(=O)[C@H](CC(C)C)NC(=O)[C@H](CCCNC(=N)N)NC(=O)[C@H](CC(C)C)NC(=O)[C@H](C)NC(=O)[C@H](CC(C)C)NC(=O)[C@H](C)NC(=O)[C@H](CC(=O)O)NC(=O)[C@H](CO)NC(=O)CNC(=O)[C@H](CCC(=O)O)NC(=O)[C@@H](N)CCSC)C(=O)NCC(=O)N[C@@H](CC(=O)O)C(=O)N[C@@H](CCC(=O)O)C(=O)N[C@@H](CCSC)C(=O)N[C@@H](CC(=O)O)C(=O)N[C@H](C(=O)N[C@@H](CO)C(=O)N[C@@H](CC(C)C)C(=O)N[C@@H](CCCNC(=N)N)C(=O)N[C@@H](C)C(=O)N1CCC[C@H]1C(=O)O)C(C)C` [Bik]: the 50% inhibitory concentration (IC50) came out at 64 ± 4 nM.

For `CC[C@H](C)[C@H](NC(=O)[C@H](CCC(=O)O)NC(=O)[C@H](CCCN=C(N)N)NC(=O)[C@H](C)NC(=O)[C@H](Cc1c[nH]c2ccccc12)NC(=O)[C@H](CCC(N)=O)NC(=O)[C@H](CCC(=O)O)NC(=O)[C@@H](N)CCC(=O)O)C(=O)NCC(=O)N[C@@H](C)C(=O)N[C@@H](CCC(N)=O)C(=O)N[C@@H](CC(C)C)C(=O)N[C@@H](CCCN=C(N)N)C(=O)N[C@@H](CCCN=C(N)N)C(=O)N[C@@H](CCSC)C(=O)N[C@@H](C)C(=O)N[C@@H](CC(=O)O)C(=O)N[C@@H](CC(=O)O)C(=O)N[C@@H](CC(C)C)C(=O)N[C@@H](CC(N)=O)C(=O)N[C@@H](C)C(=O)N[C@@H](CCC(N)=O)C(=O)N[C@@H](Cc1ccc(O)cc1)C(=O)N[C@@H](CCC(=O)O)C(=O)N[C@@H](CCCN=C(N)N)C(=O)N[C@@H](CCCN=C(N)N)C(=O)O` [Puma], the 50% inhibitory concentration (IC50) was 26 ± 9 nM.

Turning to PSSTMGQVGRQLAIIGDDINRRYDSE [Bak], inhibition was half-maximal at 8 nM (IC50).

Regarding VPGRLAEVCAVLLRLGDELEMIRPSV [Bok], half-maximal inhibition (IC50) required 198 ± 13 nM.

On to VPQDASTKKLSECLKRIGDELDSNMELQ [Bax], for which 16 nM corresponded to half-maximal inhibition (IC50).
